# Data reported in paper PMC8226722, “Comparison of Solution Chemical Properties and Biological Activity of Ruthenium Complexes of Selected β-Diketone, 8-Hydroxyquinoline and Pyrithione Ligands” (Pharmaceuticals, 2021).
# System: not listed separately
# Experiment: Parallel artificial membrane permeability assay (PAMPA)
# Conditions: pH 7.4
# Protocol: Chloride ion concentrations of 4, 24 and 100 mM were chosen according to the chloride content of the nucleus, cytosol and blood serum, respectively. […] Then parallel artificial membrane permeability assay (PAMPA) was used to estimate the ability of the complexes to penetrate membranes by passive diffusion and the effective passive permeability coefficients (Peff) obtained for complexes 1–3 are shown in Table 4 (in case of 4, there are no data due to formation of precipitate).
# Distribution coefficients at physiological pH (D7.4) of the complexes were determined by the traditional shake-flask method in n-octanol/buffered aqueous solution at pH 7.40 (20 mM phosphate buffer) at various chloride concentrations and at 25.0 ± 0.2 °C using UV-vis detection as described in our former works [37, 38, 42]. PAMPA was applied for the complexes with a Gentest pre-coated PAMPA Plate System (Corning, Corning, NY, USA) [56]. Briefly, a 96-well filter plate was used as the permeation acceptor and the 96-well bottom plate was used as the permeation donor. For simplicity, PBS was used both as donor and acceptor buffer throughout this study. […] Peff values were calculated according to the equation reported by Yu et al. [57].
row,Compound,recovery [%]
1,Cc1ccc(C(C)C)cc1.[Cl-].[O-]n1ccccc1=S.[Ru+2] [complex 1],1.3
2,C1N2CN3CN1CP(C2)C3.Cc1ccc(C(C)C)cc1.F[P-](F)(F)(F)(F)F.[O-]n1ccccc1=S.[Ru+2] [complex 2],15
3,Cc1ccc(C(C)C)cc1.[Cl-].[O-]n1ccc2ccccc2c1=S.[Ru+2] [complex 3],8.1

# Same assay, conditions: pH 7.4, 100 mM chloride, 5 h
row,Compound,"Peff, effective passive permeability [cm/s]"
1,Cc1ccc(C(C)C)cc1.[Cl-].[O-]n1ccccc1=S.[Ru+2] [complex 1],1.13e-06
2,C1N2CN3CN1CP(C2)C3.Cc1ccc(C(C)C)cc1.F[P-](F)(F)(F)(F)F.[O-]n1ccccc1=S.[Ru+2] [complex 2],2.88e-06
3,Cc1ccc(C(C)C)cc1.[Cl-].[O-]n1ccc2ccccc2c1=S.[Ru+2] [complex 3],3.35e-06

# Target: ABCB1 (P-glycoprotein) efflux pump (Homo sapiens, UniProt P08183)
# Experiment: Rhodamine 123 uptake/retention fluorescence assay (flow cytometry) in Colo 320 cells
# Conditions: Colo 320, 2 μM
# Protocol: It is important to note, that the resistance of this cell line is primarily mediated by the overexpression of the ABC-transporter P-glycoprotein, which pumps out xenobiotics from the cytosol. […] This dye is membrane-permeable and is rapidly taken up by the cells; therefore, it can be effectively used for the screening of efflux pump inhibiting compounds. […] Then the fluorescence accumulation ratios (FAR) were calculated (Figure 1) according to the equation given in the Materials and Methods section. Verapamil was used as a reference inhibitor compound.
# This fluorescence-based detection system uses verapamil (a first-generation, competitive EPI) as reference inhibitor. […] The tested compounds were added at different concentrations (2 and 20 µM; from 1 and 10 mM stock solutions, respectively) and the samples were incubated for 10 min at room temperature.
# The parameters evaluated from flow cytometric experiments are forward scatter count (FSC, provides information about cell size); side scatter count (SSC, proportional to cell granularity or internal complexity); mean fluorescence of the cells (FL-1) and the computed FAR and FAR quotients (Table S1).
# ABCB1 (P-glycoprotein) efflux pump, sequence (P08183 whole entry): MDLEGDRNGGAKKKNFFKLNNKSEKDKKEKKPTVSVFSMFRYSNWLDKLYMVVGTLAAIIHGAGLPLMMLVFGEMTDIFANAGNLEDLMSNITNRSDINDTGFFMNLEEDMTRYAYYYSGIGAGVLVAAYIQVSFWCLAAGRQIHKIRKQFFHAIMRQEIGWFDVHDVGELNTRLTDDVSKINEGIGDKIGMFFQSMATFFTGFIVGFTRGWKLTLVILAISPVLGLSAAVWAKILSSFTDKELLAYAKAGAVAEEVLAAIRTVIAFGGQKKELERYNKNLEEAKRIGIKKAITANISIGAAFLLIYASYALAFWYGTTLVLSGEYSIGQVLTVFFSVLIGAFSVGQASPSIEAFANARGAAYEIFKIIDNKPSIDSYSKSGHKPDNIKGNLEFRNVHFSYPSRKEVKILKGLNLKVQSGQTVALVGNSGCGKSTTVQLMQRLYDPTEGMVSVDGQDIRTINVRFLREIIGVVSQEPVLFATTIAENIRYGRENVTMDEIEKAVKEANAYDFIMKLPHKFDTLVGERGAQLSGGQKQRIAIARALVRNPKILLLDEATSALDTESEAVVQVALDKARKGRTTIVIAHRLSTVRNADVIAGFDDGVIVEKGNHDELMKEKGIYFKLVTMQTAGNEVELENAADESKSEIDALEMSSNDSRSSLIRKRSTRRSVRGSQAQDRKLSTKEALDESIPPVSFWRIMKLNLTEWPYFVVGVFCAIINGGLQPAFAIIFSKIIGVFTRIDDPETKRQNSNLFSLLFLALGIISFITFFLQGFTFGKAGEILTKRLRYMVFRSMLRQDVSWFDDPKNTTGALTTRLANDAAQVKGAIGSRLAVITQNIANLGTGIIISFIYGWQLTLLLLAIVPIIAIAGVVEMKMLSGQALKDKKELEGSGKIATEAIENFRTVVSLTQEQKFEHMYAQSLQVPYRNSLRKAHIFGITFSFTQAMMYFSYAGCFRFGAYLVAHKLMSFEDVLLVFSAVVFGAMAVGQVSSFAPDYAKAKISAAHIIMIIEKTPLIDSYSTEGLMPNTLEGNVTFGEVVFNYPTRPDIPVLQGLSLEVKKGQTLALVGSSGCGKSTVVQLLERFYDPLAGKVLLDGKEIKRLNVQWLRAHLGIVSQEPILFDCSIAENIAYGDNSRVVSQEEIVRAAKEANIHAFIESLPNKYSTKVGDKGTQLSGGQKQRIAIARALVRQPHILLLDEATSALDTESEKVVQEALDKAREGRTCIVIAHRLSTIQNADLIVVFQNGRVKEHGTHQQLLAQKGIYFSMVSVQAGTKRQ
Compound,FAR fluorescence accumulation ratio,FAR quotient (FAR related to that of 20 μM verapamil) [%],FSC forward scatter count,SSC side scatter count
C1N2CN3CN1CP(C2)C3.Cc1ccc(C(C)C)cc1.F[P-](F)(F)(F)(F)F.[O-]n1ccccc1=S.[Ru+2] [complex 2],1.02,21.3,2034,962
C1N2CN3CN1CP(C2)C3.Cc1ccc(C(C)C)cc1.F[P-](F)(F)(F)(F)F.[O-]n1ccc2ccccc2c1=S.[Ru+2] [complex 4],0.82,17.0,2014,959
Cc1ccc(C(C)C)cc1.O=C(C=C([O-])C(F)(F)F)c1ccc(Cl)cc1.[Cl-].[Ru+2] [complex 7],1.11,23.1,1988,946
C1N2CN3CN1CP(C2)C3.Cc1ccc(C(C)C)cc1.F[P-](F)(F)(F)(F)F.O=C(C=C([O-])C(F)(F)F)c1ccc(Cl)cc1.[Ru+2] [complex 8],0.66,13.8,1925,877

# Same assay, conditions: Colo 320, 20 μM
Compound,FAR fluorescence accumulation ratio,FAR quotient (FAR related to that of 20 μM verapamil) [%],FSC forward scatter count,SSC side scatter count
C1N2CN3CN1CP(C2)C3.Cc1ccc(C(C)C)cc1.F[P-](F)(F)(F)(F)F.[O-]n1ccccc1=S.[Ru+2] [complex 2],1.02,21.3,2071,1024
C1N2CN3CN1CP(C2)C3.Cc1ccc(C(C)C)cc1.F[P-](F)(F)(F)(F)F.[O-]n1ccc2ccccc2c1=S.[Ru+2] [complex 4],1.70,35.2,1977,973
Cc1ccc(C(C)C)cc1.O=C(C=C([O-])C(F)(F)F)c1ccc(Cl)cc1.[Cl-].[Ru+2] [complex 7],1.31,27.3,1909,900
C1N2CN3CN1CP(C2)C3.Cc1ccc(C(C)C)cc1.F[P-](F)(F)(F)(F)F.O=C(C=C([O-])C(F)(F)F)c1ccc(Cl)cc1.[Ru+2] [complex 8],1.08,22.4,1950,917

# Same assay, conditions: Colo 320, rhodamine 123, 2 μM
row,Compound,FL-1 mean fluorescence of the cells
1,C1N2CN3CN1CP(C2)C3.Cc1ccc(C(C)C)cc1.F[P-](F)(F)(F)(F)F.[O-]n1ccccc1=S.[Ru+2] [complex 2],5.4
2,C1N2CN3CN1CP(C2)C3.Cc1ccc(C(C)C)cc1.F[P-](F)(F)(F)(F)F.[O-]n1ccc2ccccc2c1=S.[Ru+2] [complex 4],4.33
3,Cc1ccc(C(C)C)cc1.O=C(C=C([O-])C(F)(F)F)c1ccc(Cl)cc1.[Cl-].[Ru+2] [complex 7],5.86
4,C1N2CN3CN1CP(C2)C3.Cc1ccc(C(C)C)cc1.F[P-](F)(F)(F)(F)F.O=C(C=C([O-])C(F)(F)F)c1ccc(Cl)cc1.[Ru+2] [complex 8],3.51

# Same assay, conditions: Colo 320, rhodamine 123, 20 μM
row,Compound,FL-1 mean fluorescence of the cells
1,C1N2CN3CN1CP(C2)C3.Cc1ccc(C(C)C)cc1.F[P-](F)(F)(F)(F)F.[O-]n1ccccc1=S.[Ru+2] [complex 2],5.41
2,C1N2CN3CN1CP(C2)C3.Cc1ccc(C(C)C)cc1.F[P-](F)(F)(F)(F)F.[O-]n1ccc2ccccc2c1=S.[Ru+2] [complex 4],8.95
3,Cc1ccc(C(C)C)cc1.O=C(C=C([O-])C(F)(F)F)c1ccc(Cl)cc1.[Cl-].[Ru+2] [complex 7],6.94
4,C1N2CN3CN1CP(C2)C3.Cc1ccc(C(C)C)cc1.F[P-](F)(F)(F)(F)F.O=C(C=C([O-])C(F)(F)F)c1ccc(Cl)cc1.[Ru+2] [complex 8],5.68

# System: MRC-5 normal human embryonal lung fibroblast cells
# Experiment: MTT cytotoxicity assay, MRC-5
# Format: cell-based
# Conditions: 72 h
# Protocol: Human colonic adenocarcinoma cell lines Colo 205 doxorubicin-sensitive (ATCC-CCL-222) and Colo 320/MDR-LRP multidrug resistant expressing ABCB1 (MDR1)-LRP (ATCC-CCL-220.1) were purchased from LGC Promochem (Teddington, UK). […] Cell lines were incubated at 37 °C, in a 5% CO2, 95% air atmosphere. The semi-adherent human colon cancer cells were detached with Trypsin-Versene (EDTA, Sigma, Steinheim, Germany) solution for 5 min at 37 °C. MRC-5 human embryonal lung fibroblast cell lines (ATCC CCL-171) were purchased from LGC Promochem. […] The cell lines were incubated at 37 °C, in a 5% CO2, 95% air atmosphere.
# In the study MRC-5 non-cancerous human embryonic lung fibroblast and human colonic adenocarcinoma cell lines (doxorubicin-sensitive Colo 205 and multidrug resistant Colo 320 colonic adenocarcinoma cells) were used to determine the effect of compounds on cell growth. The effects of increasing concentrations of compounds on cell growth were tested in 96-well flat-bottomed microtiter plates. The stock solutions of the compounds were prepared in DMSO, and in the final samples the DMSO content was always lower than 1%. The compounds were diluted in a volume of 100 μL of medium.
# In case of the colonic adenocarcinoma cells, the two-fold serial dilutions of compounds were prepared in 100 μL of RPMI 1640, horizontally. The semi-adherent colonic adenocarcinoma cells were treated with Trypsin-Versene (EDTA) solution. They were adjusted to a density of 1 × 10^4 cells in 100 μL of RPMI 1640 medium, and were added to each well, with the exception of the medium control wells. The final volume of the wells containing compounds and cells was 200 μL.
# The culture plates were incubated at 37 °C for 72 h; at the end of the incubation period, 20 μL of MTT (Sigma) solution (from a stock solution of 5 mg/mL) were added to each well. After incubation at 37 °C for 4 h, 100 μL of sodium dodecyl sulfate (SDS) (Sigma) solution (10% in 0.01 M HCl) were added to each well and the plates were further incubated at 37 °C overnight. Cell growth was determined by measuring the optical density (OD) at 540/630 nm with Multiscan EX ELISA reader (Thermo Labsystems, Cheshire, WA, USA). […] Curves were fitted by Prism software (GraphPad Software Inc., San Diego, CA, USA) using the sigmoidal dose-response model (comparing variable and fixed slopes). The IC50 values were obtained from at least 3 independent experiments.
row,Compound,IC50 [µM]
1,Cc1ccc(C(C)C)cc1.[Cl-].[O-]n1ccccc1=S.[Ru+2] [complex 1],2.17 ± 0.22
2,C1N2CN3CN1CP(C2)C3.Cc1ccc(C(C)C)cc1.F[P-](F)(F)(F)(F)F.[O-]n1ccccc1=S.[Ru+2] [complex 2],> 100
3,Cc1ccc(C(C)C)cc1.[Cl-].[O-]n1ccc2ccccc2c1=S.[Ru+2] [complex 3],7.6 ± 1.6
4,Cc1ccc(C(C)C)cc1.O=C(C=C([O-])C(F)(F)F)c1ccc(Cl)cc1.[Cl-].[Ru+2] [complex 7],26.5 ± 3.2
5,C1N2CN3CN1CP(C2)C3.Cc1ccc(C(C)C)cc1.F[P-](F)(F)(F)(F)F.O=C(C=C([O-])C(F)(F)F)c1ccc(Cl)cc1.[Ru+2] [complex 8],17.6 ± 1.5

# System: not listed separately
# Experiment: Solution stability and speciation (UV-vis, 1H-NMR, pH-potentiometry)
# Conditions: 1H-NMR, pH 1.0, 24 h, 200 mM chloride
# Protocol: In order to confirm our prediction, time-dependent UV-visible (UV-vis) spectra were recorded for complexes 5–8 at pH 7.4 in aqueous solution (in modified phosphate buffered saline (PBS) buffer—PBS’) and in Eagle’s minimum essential medium (EMEM) used for the cytotoxicity studies in the presence of 2% (v/v) dimethyl sulfoxide (DMSO). […] Additionally, ^1H-NMR spectra were recorded for more water-soluble complexes 6–8.
# In order to compare the stability of 1 and 3 at physiological pH, a serial dilution was made and UV-vis spectra were recorded in a wide concentration range (10 μM–3 mM) (Figure S10).
# Titrations were performed in a carbonate-free KOH solution (0.20 M). The exact concentration of HCl and KOH solutions was determined by pH-potentiometric titrations.
# The path length (l) was usually 1 cm, and 2, 5, 20 or 50 mm cells were used occasionally. Equilibrium constants (proton dissociation, stability constants, conditional stability constants (K’7.4) for the formation of mim adducts) and the individual spectra of the species were calculated with the computer program PSEQUAD [55]. The spectrophotometric titrations were performed in aqueous solution of the complexes at 25.0 ± 0.1 °C at an ionic strength of 0.20 M (KCl). Spectrum of the solution of 200 μM complex upon addition of one or two equivalents of its own ligand or phen was also measured at pH 7.4. UV-vis spectra recorded for the complexes as a function of chloride concentrations or PTA (in case of the chlorido complexes) were used to investigate the co-ligand exchange processes at pH 7.4. […] In some cases, the measurements were performed in the presence of 1–2% (Cl^−/PTA exchange reactions) or 6–8% (v/v) (interaction of mim with complexes 2, 4) DMSO.
# ^1H-NMR stability studies were carried out on a Bruker Avance III HD 500 MHz instrument. All ^1H-NMR spectra were recorded on samples containing 10% (v/v) D2O with the WATERGATE water suppression pulse scheme using DSS internal standard. Stability of complexes 6–8 was checked over time by ^1H-NMR spectroscopy at 500 μM in PBS’ or in EMEM (with 10% (v/v) DMSO-d6).
row,Compound,fraction of unbound Ru(η6-p-cymene) [%]
1,Cc1ccc(C(C)C)cc1.[Cl-].[O-]n1ccccc1=S.[Ru+2] [complex 1],< 3

# Same assay, conditions: pH range 2–11, 24 h
row,Compound,"pH-dependent stability, UV-vis spectra"
1,C1N2CN3CN1CP(C2)C3.Cc1ccc(C(C)C)cc1.F[P-](F)(F)(F)(F)F.[O-]n1ccccc1=S.[Ru+2] [complex 2],stayed unchanged
2,C1N2CN3CN1CP(C2)C3.Cc1ccc(C(C)C)cc1.F[P-](F)(F)(F)(F)F.[O-]n1ccc2ccccc2c1=S.[Ru+2] [complex 4],stayed unchanged

# Same assay, conditions: suggested on the basis of pH-potentiometric data
row,Compound,logK formation constant
1,Cc1ccc(C(C)C)cc1.[Cl-].[O-]n1ccccc1=S.[Ru+2] [complex 1],> 8
2,Cc1ccc(C(C)C)cc1.[Cl-].[O-]n1ccc2ccccc2c1=S.[Ru+2] [complex 3],> 8
